Experiments:
[1] = target: His6-avi-MBP-tagged POLE2; test: Single-point nHU-MS with recombinant His6-avi-MBP-POLE2 bait, Jurkat extract; assay type: binding, human; details: for log2FC / BI / pKapp: bait av-His6-MBP-tagged full-length POLE2
Source text: So far, our study only focused on a few hand-picked NPF motifs and studied them as short synthetic peptides. However, many other proteins may be present in the proteome that could bind to POLE2 and their putative NPF motifs are embedded in their natural structures that can greatly affect their binding properties. To investigate interactions between POLE2 and intact, full length proteins proteome-wide, we used nHU-MS experiments with recombinant His6-avi-MBP-tagged POLE2 as bait and purified His6-avi-MBP as a control. Even though we are aware that this recombinant POLE2 may bind to NPF motifs with a somewhat altered affinity, we assumed that this would affect all NPF motif-mediated interactions equally, allowing an unbiased affinity ranking of all identified partners. Single point nHU measurements were performed at 26 μM POLE2 concentration and the recovered supernatant was measured by label free proteomic MS measurements (Fig. 3A, Supplementary Figs. 8A, 9, Supplementary Data 1).
Single-point nHU experiments with protein baits were carried out nearly identically with two key modifications. First, the resin saturation step was carried out by mixing 50 μl streptavidin resin with 0.5−1 ml 50 μM biotinylated protein solution and the mixture was incubated for 1.5 h at 4 °C with constant agitation. Second, instead of using estimated bait concentrations, we measured it experimentally. An extra aliquot of resin stock was prepared alongside the nHU samples that were identically processed that were used to eluate the immobilized proteins under harsh conditions, in order to experimentally quantify the Cbait by using densitometry of Coomassie stained SDS-PAGE that included a protein calibration series. For this, 50 μl bait-saturated resin aliquots were mixed with 200 μl 4x Laemmli Sample Buffer (120 mM Tris-HCl pH 7, 8% SDS, 100 mM DTT, 32% glycerol, 0.004% bromphenol blue, 1% β-mercaptoethanol), instead of cell extract. After 15 min incubation at 95 °C, these samples were analyzed by SDS-PAGE using protein calibration standard, made from recombinant MBP. Densitometry was carried out after Coomassie staining on raw Tif images by using Fiji ImageJ 1.53c and experimental bait concentration were determined by adjusting for molecular weight differences between MBP and MBP-POLE2 constructs.
Samples were digested overnight at 37 °C.

[2] = test system: POLE; test: Titration nHU, Western blot, endogenous POLE in Jurkat extract; assay type: binding, human; details: titration nHU with peptide bait, Western blot
Source text: To identify the partners of NPF motifs, we used the native holdup (nHU) assay that was recently developed by our team (Fig. 1B). The holdup approach has been extensively used to determine equilibrium dissociation constants of transient interactions mediated by PDZ and SH3 domains, 14-3-3, and human papilloma virus E6 proteins, and even nucleic acid-protein interactions[7],[30]–[35]. In the nHU experiments, a purified bait molecule, or a control compound, is immobilized on a resin at high concentration (typically 10 μM, or higher) and these resin stocks are subsequently mixed with dilute cell extracts. After a relatively long incubation, i.e., 2 h at 4 °C, the liquid phase is separated by centrifugation. This liquid phase contains the unbound prey molecules at near binding equilibrium that can be quantified using selective and quantitative analytical approaches, such as mass spectrometry. Therefore, proteins that interact with the bait molecule will appear to be depleted in the solvent phase and by measuring its relative concentration compared to the control nHU experiment, the degree of binding (θ) can be determined that can be converted to apparent steady-state dissociation constants, according to:1 θ=1−Ifree/Itot=Cbait/Cbait+Kapp where Itot and Ifree are the measured total and bait-depleted equilibrium mass spectrometry total ion intensities of prey proteins, Cbait is the bait molecule concentration and Kapp is the apparent dissociation constant.
Jurkat E6.1 cells (ECACC #88042803, RRID: CVCL_0367) were grown in RPMI (Gibco) medium completed with 10% FBS (Gibco BRL) and 40 μg/ml gentamicin (Gibco/Life Technology). To prepare total cell extracts, Jurkat cells were seeded onto T-175 flasks and grew until 3 × 10^6 cells/ml confluency. Cells were collected by 1000 g x 5 min centrifugation, washed with PBS and then lysed in ice-cold lysis buffer (Hepes-KOH pH 7.5 50 mM, NaCl 150 mM, Triton X-100 1%, cOmplete EDTA-free protease inhibitor cocktail 5x, TCEP 5 mM, glycerol 10%).
Cell suspensions were sonicated 4×20 sec with 1 sec long pulse on ice, then incubated rotating at 4 °C for 30 min. The lysates were centrifuged at 12,000 rpm 4 °C for 20 min and supernatant was kept. Total protein concentration was measured by standard Bradford method (Bio-Rad Protein Assay Dye Reagent #5000006) using a BSA calibration curve (MP Biomedicals #160069, diluted in lysis buffer) on a Bio-Rad SmartSpec 3000 spectrophotometer instrument.
Titration holdup experiments were carried out as described above using 25 μl saturated resins prepared. Briefly, we mixed control, or bait-saturated resins at various proportions by keeping the total resin amount and resin-analyte ratio constant during the experiment (for 25 μl we used 100 μl cell extract as analyte). In titration experiments with protein baits, bait concentration was determined as described above for the saturated resin stocks. Experiments were carried out at 4 °C for 2 h and recovered supernatants were subjected to western blot or dot blot analysis.
For Western blot, samples were mixed with 4x Laemmli Sample Buffer in 3:1 ratio. Equal amounts of samples were loaded on 6-10% acrylamide-gels (generally 16 μg). Transfer was done into PVDF membranes using a Trans-Blot Turbo Transfer System and Trans-Blot Turbo RTA Transfer Kit (BioRad, #1704275). For Dot blot, nHU samples were directly loaded on Nitrocellulose membranes using 48 Sample vacuum manifold (Cleaver Scientific) following the manufacturer’s recommendations.
After 1 h of blocking in 5% milk, membranes were incubated overnight at 4 °C with primary antibodies in 5% milk-TBS-Tween.

[3] = significant apparent affinity of endogenous prey protein for POLE2 bait, single-point nHU-MS, Figure S11
[4] = non-zero for significant partners, MS6_Varjosalo

RARA [INKA1]
pKapp_sign [1, 3]: 5.687

PSASS [TTF2, endogenous full length prey protein]
pKapp_sign [1, 3]: 4.771

ASVD [CPSF4]
pKapp_sign [1, 3]: 4.068

ARLRH [AKNA]
pKapp_sign [1, 3]: 4.257

PSSST [GIGYF2]
pKapp_sign [1, 3]: 4.1436

RSVD [PLEKHA7]
pKapp_sign [1, 3]: 4.312

NPFQ [SSBP2, endogenous full length prey protein]
pKapp_sign [1, 3]: 4.583

CRIPT
pKapp_sign [1, 3]: 4.909

PYCR1: endogenous full length prey protein
log2FC ([1]; MS6_Varjosalo): -0.3412
pKapp_sign [1, 3]: 4.011

MIOS
pKapp_sign [1, 3]: 4.5333

NPFA [WDR59, endogenous full length prey protein]
pKapp_sign [1, 3]: 4.457

KDDY [DNAJC10]
pKapp_sign [1, 3]: 4.21

RHRA [FIP1L1]
pKapp_sign [1, 3]: 4.277

RRIVSDGEDEDDSFKDTSSINPFNTSLFQFSSVKQFDAS [ERCC6L 1024-1062, biotinylated NPF motif peptide of ERCC6L]
binding to endogenous POLE ([2]; listed as NPF motif of ERCC6L): No apparent binding

PSASS [ERCC6L, endogenous full length prey protein]
pKapp_sign [1, 3]: 4.421

PSASR [NUP188]
pKapp_sign [1, 3]: 4.034

PSVST [ZMYM1]
pKapp_sign [1, 3]: 4.45

DEGFK [ACACA, endogenous full length prey protein]
BI ([1]; MS6_Varjosalo): 0.2013
log2FC ([1]; MS6_Varjosalo): -0.3242
pKapp ([1]; MS6_Varjosalo): 3.986
pKapp_sign [1, 4]: 3.986
pKapp_sign [1, 3]: 3.986

LSVD [LEF1]
pKapp_sign [1, 3]: 4.471

TNSTSD [PIKFYVE]
pKapp_sign [1, 3]: 4.132

NSVD [PLEKHA5, endogenous full length prey protein]
pKapp_sign [1, 3]: 4.548

TRIM27
pKapp_sign [1, 3]: 4.707

KPKKPLTSSS [MAPRE1]
pKapp_sign [1, 3]: 4.964

RSRSVS [ZNRF1]
pKapp_sign [1, 3]: 4.487

SLRED [INPP5K]
pKapp_sign [1, 3]: 4.539

PVLGNI [SSBP3]
pKapp_sign [1, 3]: 4.288

QDLGNI [CTSA]
pKapp_sign [1, 3]: 4.815

PSASG [NUP214, endogenous full length prey protein]
BI ([1]; MS6_Varjosalo): 0.2012
log2FC ([1]; MS6_Varjosalo): -0.3242
pKapp ([1]; MS6_Varjosalo): 3.986
pKapp_sign [1, 4]: 3.986
pKapp_sign [1, 3]: 3.986

PPSSKVSSHS [CNTRL]
pKapp_sign [1, 3]: 4.363

PSTST [UBR5, endogenous full length prey protein]
BI ([1]; MS6_Varjosalo): 0.2095
log2FC ([1]; MS6_Varjosalo): -0.3392
pKapp ([1]; MS6_Varjosalo): 4.008
pKapp_sign [1, 4]: 4.008
pKapp_sign [1, 3]: 4.008

NPFI [DNAJA3, endogenous full length prey protein]
pKapp_sign [1, 3]: 4.13

NPFK [CCDC134, endogenous full length prey protein]
pKapp_sign [1, 3]: 4.219

TTAATSV [SEC23IP]
pKapp_sign [1, 3]: 4.243

SSNSQ [PNPT1]
pKapp_sign [1, 3]: 4.014

KPTSTYSLSS [VIPAS39]
pKapp_sign [1, 3]: 4.13

PVGGND [USP9X, endogenous full length prey protein]
pKapp_sign [1, 3]: 4.835

PAAST [NUP58]
pKapp_sign [1, 3]: 4.1

NPFT [NOSIP, endogenous full length prey protein]
pKapp_sign [1, 3]: 4.058

SSQSY [EIF4E2]
pKapp_sign [1, 3]: 4.429

SLGEI [GYG1]
pKapp_sign [1, 3]: 4.703

AGL
pKapp_sign [1, 3]: 4.38

TRIM25
pKapp_sign [1, 3]: 4.096

PSAST [EPN2, endogenous full length prey protein]
pKapp_sign [1, 3]: 4.531

TSPTSD [NUMB, endogenous full length prey protein]
pKapp_sign [1, 3]: 4.316

PSASM [RFWD3]
pKapp_sign [1, 3]: 4.618

PSPST [EXO1]
pKapp_sign [1, 3]: 4.499

NPFQ [MAPK1IP1L, endogenous full length prey protein]
pKapp_sign [1, 3]: 4.047

QPLRH [OIP5]
pKapp_sign [1, 3]: 4.225

SRPMVIQESKSLLRNPFEAIRPGS [CLSPN 1223-1246, biotinylated NPF motif peptide of Claspin]
binding to endogenous POLE ([2]; listed as CLSPN): unable to bind to endogenous POLE
binding to endogenous POLE ([2]; listed as Claspin): could not interact with POLE

— publication PMC12808100, “The non-catalytic DNA polymerase ε subunit is an NPF motif recognition protein” (Nature Communications, 2025)
